Laboratory results as given in patent US8546320B2, “Hsp9O-targeted anti-cancer chimeric peptide” (Kyoto University, priority 2008, dated 2013).
Where a SMILES comes first, the peptide text is derived from it.

Columns and labels:
Caki-1 = format: cell-based, human; details: Caki-1; for Anti-cancer activity (% relative to wild-type peptide) / Decrease in cell survival rate (% relative to wild-type peptide): wild-type peptide = 100%
Method: A total of 3×10^3 cells were inoculated per well on a 96 well plate and cultured in a medium containing 10% FBS for 24 hours, and incubated with 100 μl of a peptide having a gradual increase in concentration at 37° C. for 48 to 72 hours. The survival rate of the cells was measured by using WST-8 solution (Cell Count Reagent SF; Nacalai Tesque, Inc.).
(§1) Respective variant peptides were subjected to cell viability assay. Specifically, Caki-1 (American Type Culture Collection (Manassas, Va.) was inoculated in a total amount of 3×10^3 cells per well on a 96 well plate (Nunc™); the cells were cultured in a medium (DMEM (Tesque, Inc.) containing 10% FBS (fetal bovine serum; Biowest)) for 24 hours and incubated with 100 μl of a peptide having a gradual increase in concentration at 37° C. for 48 to 72 hours. The cell survival rate was measured by using WST-8 solution (Cell Count Reagent SF; Nacalai Tesque, Inc.) and compared with that of the wild-type Antp-TPR peptide.
as §1, with “medium” for “medium (DMEM (Tesque, Inc.)”, “FBS” for “FBS (fetal bovine serum; Biowest))”

cancer cells = test: Cell viability assay, summary statements on cancer cells; format: cell-based; details: single mutation in TPR or Antp region of Antp-TPR

Compound	Anti-cancer activity (% relative to wild-type peptide) (Caki-1)	Decrease in cell survival rate (% relative to wild-type peptide) (Caki-1)	effect compared with the wild-type protein (summary of mutations) (cancer cells)	killing effect compared with the wild-type peptide (Caki-1)
CC[C@H](C)[C@H](NC(=O)[C@H](CCCNC(=N)N)NC(=O)[C@H](C)NC(=O)[C@H](Cc1ccc(O)cc1)NC(=O)[C@H](C)NC(=O)[C@H](CCCCN)NC(=O)[C@H](CCCCN)NC(=O)[C@H](CCCCN)NC(=O)[C@H](Cc1ccc(O)cc1)NC(=O)[C@H](CCCCN)NC(=O)[C@H](CCSC)NC(=O)[C@H](CCCNC(=N)N)NC(=O)[C@H](CCCNC(=N)N)NC(=O)[C@H](CC(N)=O)NC(=O)[C@H](CCC(N)=O)NC(=O)[C@H](Cc1ccccc1)NC(=O)[C@H](Cc1c[nH]c2ccccc12)NC(=O)[C@@H](NC(=O)[C@H](CCCCN)NC(=O)[C@@H](NC(=O)[C@H](CCC(N)=O)NC(=O)[C@@H](N)CCCNC(=N)N)[C@@H](C)CC)[C@@H](C)CC)C(=O)NCC(=O)N[C@@H](CC(N)=O)C(=O)N[C@@H](CO)C(=O)N[C@@H](Cc1ccc(O)cc1)C(=O)N[C@@H](Cc1ccccc1)C(=O)N[C@@H](CCCCN)C(=O)O [Antp W14Y-TPR] (H-RQIKIWFQNRRMKYKKKAYARIGNSYFK-OH; N-terminus and C-terminus assumed)	83.36%	41.80%	effect similar to that of the wild-type protein	–
CC[C@H](C)[C@H](NC(=O)[C@H](CCCNC(=N)N)NC(=O)[C@H](C)NC(=O)[C@H](Cc1ccc(O)cc1)NC(=O)[C@H](C)NC(=O)[C@H](CCCCN)NC(=O)[C@H](CCCCN)NC(=O)[C@H](CCCCN)NC(=O)[C@H](Cc1c[nH]c2ccccc12)NC(=O)[C@H](CCCCN)NC(=O)[C@H](CCSC)NC(=O)[C@H](CCCNC(=N)N)NC(=O)[C@H](CCCNC(=N)N)NC(=O)[C@H](CC(N)=O)NC(=O)[C@H](CC(N)=O)NC(=O)[C@H](Cc1ccccc1)NC(=O)[C@H](Cc1c[nH]c2ccccc12)NC(=O)[C@@H](NC(=O)[C@H](CCCCN)NC(=O)[C@@H](NC(=O)[C@H](CCC(N)=O)NC(=O)[C@@H](N)CCCNC(=N)N)[C@@H](C)CC)[C@@H](C)CC)C(=O)NCC(=O)N[C@@H](CC(N)=O)C(=O)N[C@@H](CO)C(=O)N[C@@H](Cc1ccc(O)cc1)C(=O)N[C@@H](Cc1ccccc1)C(=O)N[C@@H](CCCCN)C(=O)O [Antp Q8N-TPR] (H-RQIKIWFNNRRMKWKKKAYARIGNSYFK-OH; N-terminus and C-terminus assumed)	109.65%	519.29%	effect similar to that of the wild-type protein	stronger than that of the wild-type peptide
CC[C@H](C)[C@H](NC(=O)[C@H](CCCNC(=N)N)NC(=O)[C@H](C)NC(=O)[C@H](Cc1ccc(O)cc1)NC(=O)[C@H](C)NC(=O)[C@H](CCCCN)NC(=O)[C@H](CCCCN)NC(=O)[C@H](CCCCN)NC(=O)[C@H](Cc1c[nH]c2ccccc12)NC(=O)[C@H](CCCCN)NC(=O)[C@H](CCSC)NC(=O)[C@H](CCCNC(=N)N)NC(=O)[C@H](CCCNC(=N)N)NC(=O)[C@H](CC(N)=O)NC(=O)[C@H](CCC(N)=O)NC(=O)[C@H](Cc1ccccc1)NC(=O)[C@H](Cc1c[nH]c2ccccc12)NC(=O)[C@@H](NC(=O)[C@H](CCCNC(=N)N)NC(=O)[C@@H](NC(=O)[C@H](CCC(N)=O)NC(=O)[C@@H](N)CCCNC(=N)N)[C@@H](C)CC)[C@@H](C)CC)C(=O)NCC(=O)N[C@@H](CC(N)=O)C(=O)N[C@@H](CO)C(=O)N[C@@H](Cc1ccc(O)cc1)C(=O)N[C@@H](Cc1ccccc1)C(=O)N[C@@H](CCCCN)C(=O)O [Antp K4R-TPR] (H-RQIRIWFQNRRMKWKKKAYARIGNSYFK-OH; N-terminus and C-terminus assumed)	109.86%	573.28%	effect higher than the wild-type protein	stronger than that of the wild-type peptide
CC[C@H](C)[C@H](NC(=O)[C@H](CCCNC(=N)N)NC(=O)[C@H](C)NC(=O)[C@H](Cc1ccc(O)cc1)NC(=O)[C@H](C)NC(=O)[C@H](CCCCN)NC(=O)[C@H](CCCCN)NC(=O)[C@H](CCCCN)NC(=O)[C@H](Cc1c[nH]c2ccccc12)NC(=O)[C@H](CCCCN)NC(=O)[C@H](CCSC)NC(=O)[C@H](CCCNC(=N)N)NC(=O)[C@H](CCCNC(=N)N)NC(=O)[C@H](CC(N)=O)NC(=O)[C@H](CCC(N)=O)NC(=O)[C@H](Cc1ccccc1)NC(=O)[C@H](Cc1c[nH]c2ccccc12)NC(=O)[C@@H](NC(=O)[C@H](CCCCN)NC(=O)[C@@H](NC(=O)[C@H](CCC(N)=O)NC(=O)[C@@H](N)CCCCN)[C@@H](C)CC)[C@@H](C)CC)C(=O)NCC(=O)N[C@@H](CC(N)=O)C(=O)N[C@@H](CO)C(=O)N[C@@H](Cc1ccc(O)cc1)C(=O)N[C@@H](Cc1ccccc1)C(=O)N[C@@H](CCCCN)C(=O)O [Antp-R1K-TPR] (H-KQIKIWFQNRRMKWKKKAYARIGNSYFK-OH; N-terminus and C-terminus assumed)	64.10%	24.98%	effective but with an effect lower than the wild-type protein	–
CC[C@H](C)[C@H](NC(=O)[C@H](CCCNC(=N)N)NC(=O)[C@H](C)NC(=O)[C@H](Cc1ccc(O)cc1)NC(=O)[C@H](C)NC(=O)[C@H](CCCCN)NC(=O)[C@H](CCCCN)NC(=O)[C@H](CCCCN)NC(=O)[C@H](Cc1c[nH]c2ccccc12)NC(=O)[C@H](CCCCN)NC(=O)[C@H](CCSC)NC(=O)[C@H](CCCNC(=N)N)NC(=O)[C@H](CCCNC(=N)N)NC(=O)[C@H](CC(N)=O)NC(=O)[C@H](CCC(N)=O)NC(=O)[C@H](Cc1ccccc1)NC(=O)[C@H](Cc1c[nH]c2ccccc12)NC(=O)[C@@H](NC(=O)[C@H](CCCCN)NC(=O)[C@H](CC(C)C)NC(=O)[C@H](CCC(N)=O)NC(=O)[C@@H](N)CCCNC(=N)N)[C@@H](C)CC)C(=O)NCC(=O)N[C@@H](CC(N)=O)C(=O)N[C@@H](CO)C(=O)N[C@@H](Cc1ccc(O)cc1)C(=O)N[C@@H](Cc1ccccc1)C(=O)N[C@@H](CCCCN)C(=O)O [Antp 13L-TPR] (H-RQLKIWFQNRRMKWKKKAYARIGNSYFK-OH; N-terminus and C-terminus assumed)	69.12%	27.91%	effective but with an effect lower than the wild-type protein	–
CC[C@H](C)[C@H](NC(=O)[C@H](CCCNC(=N)N)NC(=O)[C@H](C)NC(=O)[C@H](Cc1ccc(O)cc1)NC(=O)[C@H](C)NC(=O)[C@H](CCCCN)NC(=O)[C@H](CCCCN)NC(=O)[C@H](CCCCN)NC(=O)[C@H](Cc1c[nH]c2ccccc12)NC(=O)[C@H](CCCCN)NC(=O)[C@H](CCSC)NC(=O)[C@H](CCCNC(=N)N)NC(=O)[C@H](CCCCN)NC(=O)[C@H](CC(N)=O)NC(=O)[C@H](CCC(N)=O)NC(=O)[C@H](Cc1ccccc1)NC(=O)[C@H](Cc1c[nH]c2ccccc12)NC(=O)[C@@H](NC(=O)[C@H](CCCCN)NC(=O)[C@@H](NC(=O)[C@H](CCC(N)=O)NC(=O)[C@@H](N)CCCNC(=N)N)[C@@H](C)CC)[C@@H](C)CC)C(=O)NCC(=O)N[C@@H](CC(N)=O)C(=O)N[C@@H](CO)C(=O)N[C@@H](Cc1ccc(O)cc1)C(=O)N[C@@H](Cc1ccccc1)C(=O)N[C@@H](CCCCN)C(=O)O [Antp R10K-TPR] (H-RQIKIWFQNKRMKWKKKAYARIGNSYFK-OH; N-terminus and C-terminus assumed)	110.30%	727.03%	effect similar to that of the wild-type protein	stronger than that of the wild-type peptide
CC[C@H](C)[C@H](NC(=O)[C@H](CCCNC(=N)N)NC(=O)[C@H](C)NC(=O)[C@H](Cc1ccc(O)cc1)NC(=O)[C@H](C)NC(=O)[C@H](CCCCN)NC(=O)[C@H](CCCNC(=N)N)NC(=O)[C@H](CCCCN)NC(=O)[C@H](Cc1c[nH]c2ccccc12)NC(=O)[C@H](CCCCN)NC(=O)[C@H](CCSC)NC(=O)[C@H](CCCNC(=N)N)NC(=O)[C@H](CCCNC(=N)N)NC(=O)[C@H](CC(N)=O)NC(=O)[C@H](CCC(N)=O)NC(=O)[C@H](Cc1ccccc1)NC(=O)[C@H](Cc1c[nH]c2ccccc12)NC(=O)[C@@H](NC(=O)[C@H](CCCCN)NC(=O)[C@@H](NC(=O)[C@H](CCC(N)=O)NC(=O)[C@@H](N)CCCNC(=N)N)[C@@H](C)CC)[C@@H](C)CC)C(=O)NCC(=O)N[C@@H](CC(N)=O)C(=O)N[C@@H](CO)C(=O)N[C@@H](Cc1ccc(O)cc1)C(=O)N[C@@H](Cc1ccccc1)C(=O)N[C@@H](CCCCN)C(=O)O [Antp K16R-TPR] (H-RQIKIWFQNRRMKWKRKAYARIGNSYFK-OH; N-terminus and C-terminus assumed)	110.26%	709.01%	effect higher than the wild-type protein	stronger than that of the wild-type peptide
